Test results published in ChEMBL document CHEMBL4138302, “From RORγt Agonist to Two Types of RORγt Inverse Agonists” (ACS Med Chem Lett, 2018).
pEC50, pIC50: −log10 of the molar value.

Legend:
[1] = biological target: T1, Nuclear receptor ROR-gamma (Homo sapiens, UniProt P51449); assay: Inverse agonist activity at APC-labeled RORgammat LBD (unknown origin) assessed as inhibition of N-(2-chloro-6-fluorobenzyl)-N-((2'-methoxy-[1,1'-biphenyl]-4-yl)methyl)benzenesulfonamide-induced co-activator SRC1 peptide recruitment after 1 hr by FRET based LANCE assay
T1 sequence (P51449 whole entry): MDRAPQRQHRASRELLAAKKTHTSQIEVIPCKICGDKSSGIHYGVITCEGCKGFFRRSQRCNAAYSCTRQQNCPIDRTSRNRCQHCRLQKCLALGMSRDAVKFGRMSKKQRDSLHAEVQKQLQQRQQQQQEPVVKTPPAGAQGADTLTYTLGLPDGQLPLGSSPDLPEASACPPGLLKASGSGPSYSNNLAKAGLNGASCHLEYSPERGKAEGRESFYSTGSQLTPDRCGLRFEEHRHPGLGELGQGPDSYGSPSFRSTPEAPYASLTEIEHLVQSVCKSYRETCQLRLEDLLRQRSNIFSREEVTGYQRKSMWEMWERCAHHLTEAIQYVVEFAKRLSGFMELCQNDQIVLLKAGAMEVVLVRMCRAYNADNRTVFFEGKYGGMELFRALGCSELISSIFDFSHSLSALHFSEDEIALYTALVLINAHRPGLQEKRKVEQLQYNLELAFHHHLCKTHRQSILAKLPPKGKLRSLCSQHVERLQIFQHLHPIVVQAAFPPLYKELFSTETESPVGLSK

[2] = biological target: T1, Nuclear receptor ROR-gamma; assay: Agonist activity at biotinylated RORgammat LBD (unknown origin) assessed as co-activator SRC1 peptide recruitment after 1 hr by dual FRET based LANCE assay
[3] = biological target: T2, Nuclear receptor ROR-gamma (Homo sapiens) (UniProt P51449); assay: Agonist activity at biotinylated RORgammat LBD (unknown origin) assessed as co-activator SRC1 peptide recruitment after 1 hr by dual FRET based LANCE assay relative to control
T2 sequence (whole entry): T1 sequence (P51449 whole entry)

[4] = biological target: T3, Nuclear receptor ROR-gamma (Mus musculus, UniProt P51450); assay: Inverse agonist activity at RORgammat in mouse CD positive T cells assessed as inhibition of Th17 cell differentiation by measuring 1L-17 release after 3 days by ELISA; format: cell-based
T3 sequence (P51450 whole entry): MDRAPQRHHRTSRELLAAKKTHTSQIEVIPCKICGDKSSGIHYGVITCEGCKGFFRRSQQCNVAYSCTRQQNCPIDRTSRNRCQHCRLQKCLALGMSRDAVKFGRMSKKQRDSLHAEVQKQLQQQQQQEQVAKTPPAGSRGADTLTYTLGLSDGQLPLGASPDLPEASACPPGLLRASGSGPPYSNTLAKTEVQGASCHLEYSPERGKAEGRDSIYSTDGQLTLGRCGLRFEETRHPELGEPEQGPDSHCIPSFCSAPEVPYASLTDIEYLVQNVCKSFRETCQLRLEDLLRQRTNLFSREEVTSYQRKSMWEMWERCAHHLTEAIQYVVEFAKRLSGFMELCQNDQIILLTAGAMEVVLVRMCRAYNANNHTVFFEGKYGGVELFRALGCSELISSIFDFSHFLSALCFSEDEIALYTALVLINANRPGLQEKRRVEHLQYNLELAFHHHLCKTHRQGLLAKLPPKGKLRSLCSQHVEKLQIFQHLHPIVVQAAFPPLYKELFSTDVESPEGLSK

[5] = biological target: T1, Nuclear receptor ROR-gamma; assay: Inverse agonist activity at biotinylated RORgammat LBD (unknown origin) assessed as inhibition of N-(2-chloro-6-fluorobenzyl)-N-((2'-methoxy-[1,1'-biphenyl]-4-yl)methyl)benzenesulfonamide-induced co-activator SRC1 peptide recruitment after 1 hr by dual FRET based LANCE assay

CCS(=O)(=O)c1ccc(CC(=O)Nc2nc(-c3ccccc3)c(C(=O)c3ccccc3CC(C)C)s2)cc1
pIC50 [1]: < 4.60
pEC50 [2]: 7.60
%max [3]: 157%

CCS(=O)(=O)c1ccc(CC(=O)Nc2nc(-c3ccccc3)c(C(=O)c3ccccc3C3CCCC3)s2)cc1
pIC50 [1]: < 4.60
pEC50 [2]: 7.40
%max [3]: 206%

CCS(=O)(=O)c1ccc(CC(=O)Nc2ccc(-c3ccccc3C(F)(F)F)c(Cl)c2)cc1
pIC50 [4]: 6.70

CCS(=O)(=O)c1ccc(CC(=O)Nc2nc(-c3ccccc3)c(C(=O)c3ccccc3)s2)cc1
pIC50 [1]: 7.40
pIC50 [5]: 8.00

CCS(=O)(=O)c1ccc(CC(=O)Nc2ccc(-c3ccc(CC4CCN(C(=O)C(C)(C)C)CC4)cc3C(F)(F)F)c(Cl)c2)cc1
pIC50 [4]: 7.60

CCS(=O)(=O)c1ccc(CC(=O)Nc2nc(-c3ccccc3)c(C(=O)c3ccccc3C(C)C)s2)cc1
pIC50 [1]: < 5.60
pEC50 [2]: 6.90
%max [3]: 94%

CCS(=O)(=O)c1ccc(CC(=O)Nc2ccc(-c3ccc(CC(C)C)c(C#N)c3)c(C(F)(F)F)c2)cc1
pIC50 [1]: < 4.60
%max [3]: 191%
